Reference: patent US20260297060A1, “COMPOUNDS FOR THE DEGRADATION OF MUTANT BRAF” (C4 THERAPEUTICS, INC., priority 2023, published 2026)
Read-outs that look alike come from different tables or passages of the source.

Legend:
[1] = Example 8 pharmacokinetics assay for PKPD study (plasma, tumor, liver); assay type: in vivo, BALB/c nude mice; settings: mouse, po, 35 mg/kg, p.o., single dose
Procedure: For the PK and PD study, agents were administered to BALB/c nude mice bearing A375 human melanoma xenografts tumors. encorafenib, Compound 8, Compound 26, Compound 38, and Compound 39 were dosed p.o. once on day 1. Encorafenib was dosed at 35 mg/kg, Compound 8, Compound 26, Compound 38, and Compound 39 were dosed at 10 mg/kg. This study was non-GLP.
The plasma samples were collected at predetermined time points for PK analysis. For non-termination plasma collection, blood samples were collected into the 1.5 mL Eppendorf tubes containing 3 μL of 0.5 M EDTA-K2. For termination plasma collection, the mice were euthanized at predetermined time points post the treatment and the blood samples were collected into the 1.5 mL Eppendorf tubes containing 15 μL of 0.5 M EDTA-K2. And then the anticoagulant blood samples were centrifuged at 2,500 g at 4° C. for 15 minutes. The plasma samples were separated into 2 aliquots. The 1st was used for PK analysis, and the 2nd served as backup. The samples were stored at −80° C. before bioanalysis.
The tumor samples were collected at predetermined time points for PK and WB analysis. The tumor was dissected out and split into 3 parts. The 1st part was used for PK analysis, the 2nd part was used for WB analysis and the last one served as backup for study. The samples were transferred into pre-labeled tubes and quickly froze in liquid nitrogen within 2 minutes after dissection. The samples were stored at −80° C. before bioanalysis.
Liver samples were collected at predetermined time points for PK analysis. The left lobe of the liver was dissected out and split into 2 parts. The 1st part was used for PK analysis and the 2nd part served as the backup for the study. The samples were transferred into pre-labeled tubes and quickly froze in liquid nitrogen within 2 minutes after dissection. The samples were stored at −80° C. before bioanalysis.
The harvested plasma and liver samples were processed for pharmacokinetics analysis by LC-MS/MS with a concentration range of 0.200~200 ng/mL for encorafenib in plasma and liver homogenate, and 0.100-100 ng/ml in tumor homogenate, 1.00-1000 ng/mL for Compound 8 in plasma and 0.500~500 ng/ml in tumor and liver homogenate, 50.0~50,000 ng/mL for Compound 26 and Compound 38 in plasma, 5.0~5000 ng/ml in liver and 2.00~2000 ng/ml in tumor homogenate, 1.00-1000 ng/mL for Compound 39 in plasma and 0.500~500 ng/mL in liver and tumor homogenate.

[2] = system: A375 human melanoma xenografts; test: Example 8 efficacy study in A375 human melanoma xenografts (tumor volume, T/C, TGI); assay type: in vivo, BALB/c nude mice; settings: 35 mg/kg, p.o., QD × 21 days
Procedure: For efficacy study, agents were tested in the A375 human melanoma xenografts model. Compound 8, Compound 26, and Compound 38 were administered to BALB/c nude mice bearing A375 xenografts from day 0 and dosed p.o. twice per day (BID). Compound 8 and Compound 26 were dosed at 10 mg/kg for 21 days. Compound 38 was dosed at 10 mg/kg for 10 days. The known BRAF inhibitor encorafenib was used as a positive control. encorafenib was administered from day 1 and dosed p.o. daily (QD) for 21 days and dosed at 35 mg/kg.
The A375 tumor cells were maintained in vitro in DMEM medium supplemented with […] and 1% Penicillin-Streptomycin at 37° C. in an atmosphere of 5% CO2 in air. The tumor cells were routinely subcultured twice weekly. The cells growing in an exponential growth phase were harvested and counted for tumor inoculation.
Each mouse was inoculated subcutaneously at the right flank with A375 cells (5×10^6) in 0.2 mL of PBS supplemented with Matrigel (PBS:Matrigel=1:1) for tumor development. Animals were grouped for treatment 16 days after tumor inoculation when the average tumor volume reached 234 mm^3 for efficacy study and 382 mm^3 for PKPD study. The test articles administration and the animal numbers in each group are shown in the above experimental tables.
Prior to the onset of drug treatment, mice were measured for tumor size in two dimensions using a caliper, and the tumor volume (mm^3) was calculated using formula V=0.5 a×b^2 where a and b are the long and short diameters of the tumor in mm, respectively. Mice were randomized into different treatment groups based on the tumor volume.
The major endpoint was to see if the tumor growth could be delayed or mice could be cured. The tumor size was then used for calculations of T/C value. The T/C value (in percent) is an indication of antitumor effectiveness; T and C are the mean volumes of the treated and control groups, respectively on specified day.
TGI was calculated for each group using the formula: TGI (%)=[1−(Ti−T0)/(Ci−C0)]×100; Ti is the average tumor volume of a treatment group on a given day, T0 is the average tumor volume of the treatment group on the day of treatment start, Ci is the average tumor volume of the vehicle control group on the same day with Ti, and C0 is the average tumor volume of the vehicle group on the day of treatment start.

[3] = liver, read-out: Concentration in Liver (mean ± SEM)
[4] = plasma, read-out: Concentration in Plasma (mean ± SEM)
[5] = tumor, read-out: Concentration in Tumor (mean ± SEM)

Work on `COC(=O)N[C@@H](C)CNc1nccc(-c2cn(C(C)C)nc2-c2cc(Cl)cc(NS(C)(=O)=O)c2F)n1` [Encorafenib, encorafenib, reference compound] yielded a concentration at 6 h [1, 3] of 362 ± 231 ng/g, a concentration at 12 h [1, 3] of 16 ± 5.3 ng/g and a concentration at 1 h [1, 4] of 5510 ± 1700 ng/mL. For the same compound, the concentration at 6 h [1, 4] was 585 ± 446 ng/mL, the concentration at 12 h [1, 4] was 11.3 ± 8.5 ng/mL and the concentration at 24 h ([1]; plasma, 24 h, read-out: Concentration in Plasma (mean ± SEM)) was 0.368 ± 0.082 ng/mL. For the same compound, the concentration at 1 h [1, 5] was 1350 ± 391 ng/g, the concentration at 6 h [1, 5] was 139 ± 76.2 ng/g and the concentration at 12 h [1, 5] was 16.1 ± 10.9 ng/g. The T/C ([2]; PG-D21) was 14.94%, the TGI ([2]; PG-D21) was 98.67% and the “Tumor Size on PG-D21 (Mean ± SEM)” value ([2]; PG-D21) was 254 ± 19 mm^3. The “Tumor Volume (mean ± SEM)” value ([2]; day 0) was 234 ± 6 mm^3, the “Tumor Volume (mean ± SEM)” value ([2]; day 3) was 329 ± 17 mm^3 and the “Tumor Volume (mean ± SEM)” value ([2]; day 6) was 347 ± 21 mm^3. For the same compound, the “Tumor Volume (mean ± SEM)” value ([2]; day 9) was 251 ± 20 mm^3, the “Tumor Volume (mean ± SEM)” value ([2]; day 13) was 194 ± 16 mm^3 and the “Tumor Volume (mean ± SEM)” value ([2]; day 17) was 194 ± 15 mm^3. The “Tumor Volume (mean ± SEM)” value ([2]; day 21) was 254 ± 19 mm^3.
